From US20050261292A1, “Pharmaceutical composition containing N-sulfamoyl-N'-arylpiperazines for the treatment or inhibition of obesity and related conditions” (Solvay Pharmaceuticals GmbH, priority 2004, published 2005)
Where a name gives a salt, the structure may show the parent alone.

Molecular target: T1, human carbonic anhydrase isoenzyme II (hCA II) (Homo sapiens, UniProt P00918)
T1 construct: human carbonic anhydrase isoenzyme II from erythrocytes (Sigma-Aldrich); purchased Sigma-Aldrich; host or cells: human erythrocytes (natural source)
Experiment: In vitro inhibition of human carbonic anhydrase isoenzyme II (hCA II), dansylamide fluorescence
Format: biochemical
Details: hCA II from erythrocytes 10^-7 M, 60 min, single measurements, read-out: hCA II inhibiting effect in vitro, IC50
Experimental: 1. In vitro Inhibition of Human Carbonic Anhydrase Isoenzyme II (hCA II)
The test compounds of Formula I in 96 well microplates were diluted with aqua bidest by using an automatic pipettor (CyBiWell®). From the different dilution plates, aliquots of 20 μl were transferred to the 96 well black assay plates with a pipetting station (Tecan Genesis®). In a second step, 148 μl of potassium phosphate buffer (20 mM, pH 7.4) was added, and as a third step, 20 μl of enzyme solution (1 μM human carbonic anhydrase isoenzyme II from erythrocytes (Sigma-Aldrich), dissolved in potassium phosphate buffer) incubated for 60 min at room temperature and the fluorescence signal (Tecan Ultra® fluorescence reader; excitation wavelength: 280 nm; emission wavelength: 465 nm) read at the end of the preincubation period (FLU-1). After the preincubation time, 20 μl of aqueous dansylamide solution (1 mM dansylamide (Sigma-Aldrich), dissolved in hydrochloric acid) were added and the fluorescence signal read every 10 min for a period of 60 min at 37° C. For calculation, the fluorescence data of the time point 60 min (FLU-2) were used. The total volume of assay mixture amounted to 208 μl. The final concentration of carbonic anhydrase II was 10^−7 M/L, of dansylamide 2.25×10^−6 and of compounds from 10^−8 M/L up to 10^−5 M/L. Final concentration of DMSO as compound solvent was […]. Each microplate also contained blanks without compound and enzyme, controls without compound and ethoxzolamide (final concentration 5×10^−8 M/L). All data reflect single measurements. Data were expressed as % inhibition after calculation by the formula: % inhibition=100((1−(FLU−2cpd−FLU−2blank−FLU−1cpd+FLU−1blank)/(FLU−2control−FLU−2blank−FLU−1control−FLU−1blank))
The % inhibition data for each compound and the respective final concentrations were used for IC50 calculations by using the Prism 4 software. Concentration action figures were calculated by applying the Prism algorithm for nonlinear regression (curve-fit): sigmoidal dose response with variable slope and the constraints: top: 100 and bottom 0.

NS(=O)(=O)N1CCN(c2ccccc2)CC1 [Example 2, N-Sulfamoyl-N′-phenylpiperazine hydrochloride]
IC50: 5.1 µM
